Measurements from patent US12098179B2, “Antigenic peptides deriving from urocortin 3 and uses thereof for the diagnosis and treatment of type 1 diabetes” (INSERM (INSTITUT NATIONAL DE LA SANTÉ ET DE LA RECHERCHE …, priority 2018, dated 2024).
Ends that are not written are not given here.

How the values were obtained:
[1] = test system: pancreas-infiltrating cells of HLA-A2^+ T1D patients; experiment: in-situ HLA-A2 MMr staining on pancreas sections; type: cell-based, human; settings: 2 HLA-A2^+ T1D cases (nPOD)
Procedure: In-situ staining was performed as described (Culina et al., 2018). Unfixed, frozen sections were dried for 2 h, loaded with 1 μg of MMrs overnight at 4° C., washed gently with phosphate-buffered saline and fixed in 2% paraformaldehyde for 10 min. After a further wash, endogenous peroxidase activity was blocked with 0.3% H2O2. Sections were then incubated serially with rabbit anti-phycoerythrin, horseradish peroxidase-conjugated swine anti-rabbit and 3,3′-diaminobenzidine tetrahydrochloride substrate (ThermoFisher). After a final wash, sections were counterstained with hematoxylin, dehydrated via sequential passages in 95-100% ethanol and xylene, mounted and analyzed using a Nikon Eclipse Ni microscope with NIS-Elements Analysis D software v4.40.

[2] = test system: islet-infiltrating CD8^+ T cells of NOD mice; experiment: IFN-γ recall assay of islet-infiltrating cells against peptide-pulsed K^d+ L cells; type: cell-based, mouse; settings: 12-16-week-old NOD females; for percentage of IFN-γ^+CD8^+ cells, median / percentage of IFN-γ^+CD8^+ cells, positive range: 6 h recall; for positive mice (IFN-γ^+CD8^+ cells >1.8%): positive / tested
Description: Peptides predicted to be restricted by the murine MHC Class I K^d molecule were identified using prediction algorithms and scanning of the whole murine protein sequence. Peptides were first tested in pools, and positive pools subsequently deconvoluted for reactivity against individual peptides. To this end, islets were isolated from 12-16-week-old NOD mice by collagenase digestion and put in culture with recombinant human IL-2 (Proleukin, Novartis) for 5 days as described (Brezar et al, Eur J Immunol 2012). Cells exiting the islets were subsequently collected and subjected to recall assays against K^d+ L antigen-presenting cells pulsed with the indicated peptides for 6 h in the presence of brefeldin-A, followed by intracellular staining for IFN-γ. The TUM, Ins B15-23 and IGRP 206-214 peptides were included as negative control and positive controls, respectively.

[3] = test system: circulating CD8^+ T cells; experiment: ex vivo HLA-A3 multimer (MMr) staining of PBMCs; type: cell-based, human; settings: HLA-A3^+ T1D and healthy donors
Procedure: HLA-A3 MMrs were produced and used as described (Gonzalez-Duque, Cell Metab 2018). Each peptide-HLA-A3 complex was used at a final concentration of 8-27 nM and conjugated with fluorochrome-labeled streptavidin at a 1:4 ratio. The concentration of each fluorescent MMr was corrected for the variable staining index of each streptavidin, in order to obtain a distinct double-MMr^+ population for each fluorochrome pair. Compensations were set using fluorescence-minus-one samples (i.e. omitting one streptavidin at a time). The combinatorial MMr panel was first set up by staining HLA-A3^+ PBMCs with the same set of fluorescent streptavidin-labeled MMrs, all loaded with the Flu NP265-273 epitope, which yielded a similar MMr^+CD8^+ T-cell frequency for all the 15 MMr combination pairs.
PBMCs were thawed at 37° C. and immediately diluted in pre-warmed AIM-V medium. Following centrifugation and one additional wash in AIM-V, PBMCs were counted and rested in the presence of 50 nM dasatinib for 30 min at 37° C. to prevent internalization of T-cell receptors before magnetic depletion of CD8^− cells (StemCell Technologies). Staining was performed for 20 min at 20° C. in […] PBS-dasatinib for 10^7 cells with combinatorial double-coded MMr panels, followed, without washing, by CD3-APC-H7 (RRID AB_1645475), CD8-PE-Cy7 (AB_396852), CD45RA-FITC (AB_395879), CCR7-BV421 (AB_2728119) monoclonal antibodies and Live/Dead Aqua (ThermoFisher) staining at 4° C. for 20 min. After one wash, cells were acquired using a FACSAria III cytometer. […] Flow cytometry data were analyzed with FlowJo v10 and Graphpad Prism 7.0 software. Cells were sequentially gated on small lymphocytes, singlets, live cells (Live/Dead Aqua l, CD3^+CD8^+ T cells and total PE^+, PE-CF594^+, APC^+, BV650^+, BV711^+ and BV786^+ MMr^+ T cells. Using Boolean operators, these latter gates allowed to selectively visualize each double-MMr^+ population by including only those events positive for the corresponding fluorochrome pair. For example, SCG3166-174 MMr^+ cells (PE^+PE-CF594^+) were visualized by gating on events that were PE^+PE-CF594^+APC^−BV650^−BV711^−BV786^−. Events negative for all MMr fluorochromes (PE^−PE-CF594^−APC^−BV650^−BV711^−BV786^−) were represented in the same PE/PE-CF-594 dot plot to set the double-MMr^+ gate. CD45RA and CCR7 staining was subsequently visualized by gating on these MMr^+ cells.

[4] = test system: circulating CD8^+ T cells; experiment: ex vivo combinatorial HLA-A2 MMr assay on PBMCs; type: cell-based, human
Procedure: All peptides were synthesized at >90% purity (Synpeptides). HLA-A2 MMrs were produced as described (Leisner et al., 2008) and staining performed in the presence of 50 nM dasatinib (Lissina et al., 2009), as described (Culina et al., 2018). Briefly, cryopreserved PBMCs were magnetically depleted of CD8^− cells (StemCell Technologies), stained with the combinatorial MMr panels (Hadrup et al., 2009) and acquired using a FACSAria III cytometer.

[5] = HLA-A2^+ healthy donors, screening
[6] = HLA-A2^+ recent-onset T1D and healthy subjects (n=10/each)

ZnT8186-184: positive control islet peptide (VAANIVLTV; UniProt Q8IWU4 186-194, looked up, fragment) [reference compound]
in-situ MMr staining of pancreas sections [1]: MMr^+ cells could be detected

LYDESCSSTL [Pcsk2 341-350, murine Pcsk2 peptide predicted to be restricted by K^d]
percentage of positive mice [2]: 75% | percentage of IFN-γ^+CD8^+ cells, median [2]: 3.3% | percentage of IFN-γ^+CD8^+ cells, positive range [2]: 1.9-5.2% | positive mice (IFN-γ^+CD8^+ cells >1.8%) [2]: 6/8

SCG3166-174: HLA-A3-restricted islet peptide from secretogranin III (AVFDKIVSK)
validation as HLA-A3-restricted CD8^+ T-cell epitope [3]: positive hits

PPI6-14: known preproinsulin β-cell epitope used as β-cell positive control (RLLPLLALL; UniProt P01308 6-14, looked up, fragment) [reference compound]
frequency of CD8^+ T cells recognizing the peptide [4, 5]: 1-50 /10^6 CD8^+ T cells | frequency of circulating CD8^+ T cells recognizing the peptide ([4]; HLA-A2^+ recent-onset T1D and healthy subjects (n=10/each), similar in both): 1-50 /10^6 CD8^+ T cells

RYLEHVQAVI [Pcsk2 501-510, murine Pcsk2 peptide predicted to be restricted by K^d]
percentage of positive mice [2]: 63% | percentage of IFN-γ^+CD8^+ cells, median [2]: 2.7% | percentage of IFN-γ^+CD8^+ cells, positive range [2]: 2.1-8.0% | positive mice (IFN-γ^+CD8^+ cells >1.8%) [2]: 5/8

MLMPVHFLL
cognate naïve CD8^+ T-cell repertoire (frequency 1-50/10^6, clustered MMr staining) validated [4, 5]: validated | frequency of MMr^+ cells (in words) [4, 6]: particularly high and clustered

VFSCLNTAL [Ucn3 32-40, murine Ucn3 peptide predicted to be restricted by K^d]
percentage of positive mice [2]: 67% | percentage of IFN-γ^+CD8^+ cells, median [2]: 1.9% | percentage of IFN-γ^+CD8^+ cells, positive range [2]: 1.9-3.3% | positive mice (IFN-γ^+CD8^+ cells >1.8%) [2]: 8/12

FLSGAVNRL [SCG5-009186-194]
cognate naïve CD8^+ T-cell repertoire (frequency 1-50/10^6, clustered MMr staining) validated [4, 5]: validated | frequency of MMr^+ cells (in words) [4, 6]: particularly high and clustered

GQWEDASLLSK
validation as HLA-A3-restricted CD8^+ T-cell epitope [3]: positive hits

GYRDINEIDI [Pcsk2 109-118, murine Pcsk2 peptide predicted to be restricted by K^d]
percentage of positive mice [2]: 50% | percentage of IFN-γ^+CD8^+ cells, median [2]: 1.8% | percentage of IFN-γ^+CD8^+ cells, positive range [2]: 1.9-4.3%

CHGA344-352: HLA-A2-restricted HLA-eluted β-cell peptide from chromogranin A (KMDQLAKEL)
cognate naïve CD8^+ T-cell repertoire (frequency 1-50/10^6, clustered MMr staining) validated [4, 5]: validated

KIF1A1347-1355: HLA-A2-restricted HLA-eluted β-cell peptide from Kinesin Family Member 1A (VLDTSVAYV)
cognate naïve CD8^+ T-cell repertoire (frequency 1-50/10^6, clustered MMr staining) validated [4, 5]: validated

PCSK230-38: HLA-A2-restricted HLA-eluted β-cell peptide from proprotein convertase 2 (FTNHFLVEL)
cognate naïve CD8^+ T-cell repertoire (frequency 1-50/10^6, clustered MMr staining) validated [4, 5]: validated

RLKPSLVGK [SCG5-009193-201, HLA-A3 restricted peptide from mRNA splice variant SCG5-009]
validation as HLA-A3-restricted CD8^+ T-cell epitope [3]: positive hits

KIF1A860-868: HLA-A3-restricted islet peptide from KIF1A (LLYPVPLVH)
validation as HLA-A3-restricted CD8^+ T-cell epitope [3]: positive hits

PNMA250-58: HLA-A3-binding islet peptide not validated as CD8+ T-cell epitope (RLLGKIFRK)
validation as HLA-A3-restricted CD8^+ T-cell epitope [3]: single exception

SCG5186-195: HLA-A2-restricted HLA-eluted β-cell peptide from SCG5 (7B2) (YLQGQRLDNV)
cognate naïve CD8^+ T-cell repertoire (frequency 1-50/10^6, clustered MMr staining) validated [4, 5]: validated

ISL1276-284: HLA-A2-restricted HLA-eluted peptide from insulin gene enhancer protein ISL1 (GLQANPVEV)
in-situ MMr staining of pancreas sections [1]: MMr^+ cells could be detected | cognate naïve CD8^+ T-cell repertoire (frequency 1-50/10^6, clustered MMr staining) validated [4, 5]: validated | median frequency detected in peripheral blood ([4]; T1D patients): 7.2×10^−6

TYFLLPLLL [Ucn3 5-13, murine Ucn3 peptide predicted to be restricted by K^d]
percentage of positive mice [2]: 67% | percentage of IFN-γ^+CD8^+ cells, median [2]: 2.3% | percentage of IFN-γ^+CD8^+ cells, positive range [2]: 2.1-8.6% | positive mice (IFN-γ^+CD8^+ cells >1.8%) [2]: 8/12

KCNK16129-137: HLA-A2-restricted HLA-eluted β-cell peptide from KCNK16 (ALLGIPLNV)
cognate naïve CD8^+ T-cell repertoire (frequency 1-50/10^6, clustered MMr staining) validated [4, 5]: validated

IGRP 206-214: positive control peptide in NOD recall assay (VYLKTNVFL; UniProt Q9Z186 206-214, looked up, fragment) [reference compound]
percentage of positive mice [2]: 100% | percentage of IFN-γ^+CD8^+ cells, median [2]: 12.5% | percentage of IFN-γ^+CD8^+ cells, positive range [2]: 4.5-25.3% | positive mice (IFN-γ^+CD8^+ cells >1.8%) [2]: 13/13
